This passage reports IC50 results from patent US9187455B2, “Substituted pyridazines as PDE10A inhibitors” (Hoffmann-La Roche Inc., priority 2009, dated 2015).

Each structure is given as a SMILES string.

T1 sequence (Q9Y233 715-1055): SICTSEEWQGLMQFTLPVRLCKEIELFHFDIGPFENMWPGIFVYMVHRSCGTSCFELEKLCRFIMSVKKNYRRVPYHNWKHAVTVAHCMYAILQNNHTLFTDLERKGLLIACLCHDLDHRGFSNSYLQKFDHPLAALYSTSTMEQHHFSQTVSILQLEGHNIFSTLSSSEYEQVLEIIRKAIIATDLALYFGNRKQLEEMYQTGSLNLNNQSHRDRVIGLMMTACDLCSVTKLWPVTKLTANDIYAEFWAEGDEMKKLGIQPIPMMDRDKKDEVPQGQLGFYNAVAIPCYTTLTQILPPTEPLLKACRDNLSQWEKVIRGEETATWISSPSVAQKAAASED

This assay has as its target T1, PDE10A2 (Homo sapiens, UniProt Q9Y233).
T1 construct: residues serine 449 to aspartate 789; His6 (H6) with Gateway linker and thrombin cleavage site (N, cleaved yes); made in house; host or cells: E. coli BL21(DE3) pLysS
The assay is described as follows: PDE10A2 Scintillation Proximity Assay (SPA), [3H]-cGMP hydrolysis. Format: biochemical. Conditions: catalytic domain of human PDE10A2 (S449-D789), 0.25 nM enzyme, 50 nM cGMP + 50 nM [3H]-cGMP, 30 minutes at room temperature; read-out: PDE10A2 inhibition IC50. The method, boiled down:
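Recombinant human PDE10A2 catalytic domain (S449–D789, E. coli-expressed), 0.25 nM, with 50 nM cGMP plus 50 nM [3H]-cGMP in 20 mM HEPES/10 mM MgCl2, pH 7.5, 30 min at room temperature. Stopped with YSi-SPA beads in zinc sulphate; counts over a compound concentration range gave IC50.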
For orientation: In a scintillation proximity assay essentially only radioactivity close to the scintillant gives light.
A word on the IC50: it is the concentration needed to halve the response being measured. On to `O=c1ccn(-c2ccc(C(F)(F)F)nc2)nc1-c1ccnn1-c1cccc2ncccc12` [Example 80, 3-(2-Quinolin-5-yl-2H-pyrazol-3-yl)-1-(6-trifluoromethyl-pyridin-3-yl)-1H-pyridazin-4-one], for which the half-maximal inhibitory concentration (IC50) stood at 72 nM.
For the compound `O=c1ccn(-c2ccc(C(F)(F)F)nc2)nc1-c1ccnn1-c1cccc2cnccc12` [Example 81, 3-(2-Isoquinolin-5-yl-2H-pyrazol-3-yl)-1-(6-trifluoromethyl-pyridin-3-yl)-1H-pyridazin-4-one], the half-maximal inhibitory concentration (IC50) is 107 nM.
Take `Cc1cncc(-n2ccc(=O)c(-c3ccnn3-c3ccnc4cc(Cl)ccc34)n2)c1` [Example 82, 3-[2-(7-Chloro-quinolin-4-yl)-2H-pyrazol-3-yl]-1-(5-methyl-pyridin-3-yl)-1H-pyridazin-4-one]: the IC50 stood at 102 nM.
For `Cc1cc(-n2ccc(=O)c(-c3ccnn3-c3cccc4ncccc34)n2)ccn1` [Example 83, 1-(2-Methyl-pyridin-4-yl)-3-(2-quinolin-5-yl-2H-pyrazol-3-yl)-1H-pyridazin-4-one], the IC50 was 134 nM.
To `O=c1ccn(-c2cccnc2)nc1-c1ccnn1-c1cccc2ncccc12` [Example 84, 1-Pyridin-3-yl-3-(2-quinolin-5-yl-2H-pyrazol-3-yl)-1H-pyridazin-4-one] belongs 169 nM.
For `Cc1cc(-n2ccc(=O)c(-c3ccnn3-c3cccc4cnccc34)n2)ccn1` [Example 85, 3-(2-Isoquinolin-5-yl-2H-pyrazol-3-yl)-1-(2-methyl-pyridin-4-yl)-1H-pyridazin-4-one], the IC50 was determined as 46 nM.
For the compound `O=c1ccn(-c2cccnc2)nc1-c1ccnn1-c1cccc2cnccc12` [Example 86, 3-(2-Isoquinolin-5-yl-2H-pyrazol-3-yl)-1-pyridin-3-yl-1H-pyridazin-4-one], the IC50 was found to be 50 nM.
`N#Cc1cncc(-n2ccc(=O)c(-c3ccnn3-c3ccccc3F)n2)c1` [Example 87, 5-{3-[2-(2-Fluoro-phenyl)-2H-pyrazol-3-yl]-4-oxo-4H-pyridazin-1-yl}-nicotinonitrile]: the concentration for half-maximal inhibition (IC50) came out at 477 nM.
The figure for `Cc1cc(-n2nccc2-c2nn(-c3ccc(Cl)nc3)ccc2=O)ccn1` [Example 88, 1-(6-Chloro-pyridin-3-yl)-3-[2-(2-methyl-pyridin-4-yl)-2H-pyrazol-3-yl]-1H-pyridazin-4-one] is 1130 nM; for `O=c1ccn(-c2cncc(OC(F)F)c2)nc1-c1ccnn1-c1cccc2ncccc12` [Example 89, 1-(5-Difluoromethoxy-pyridin-3-yl)-3-(2-quinolin-5-yl-2H-pyrazol-3-yl)-1H-pyridazin-4-one] it is 46 nM.
For `Cc1cncc(-n2ccc(=O)c(-c3ccnn3-c3ccccc3F)n2)c1` [Example 90, 3-[2-(2-Fluoro-phenyl)-2H-pyrazol-3-yl]-1-(5-methyl-pyridin-3-yl)-1H-pyridazin-4-one], the IC50 was 90 nM.
The figure for `O=c1ccn(-c2ccncc2)nc1-c1ccnn1-c1ccnc2cc(Cl)ccc12` [Example 91, 3-[2-(7-Chloro-quinolin-4-yl)-2H-pyrazol-3-yl]-1-pyridin-4-yl-1H-pyridazin-4-one] is 32 nM; for `Cc1cc(-n2ccc(=O)c(-c3ccnn3-c3ccccc3F)n2)ccn1` [Example 93, 3-[2-(2-Fluoro-phenyl)-2H-pyrazol-3-yl]-1-(2-methyl-pyridin-4-yl)-1H-pyridazin-4-one] it is 206 nM.
Regarding `O=c1ccn(-c2ccnc(C(F)(F)F)c2)nc1-c1ccnn1-c1ccccc1F` [Example 94, 3-[2-(2-Fluoro-phenyl)-2H-pyrazol-3-yl]-1-(2-trifluoromethyl-pyridin-4-yl)-1H-pyridazin-4-one], the half-maximal inhibitory concentration (IC50) turned out to be 281 nM.
As for `O=c1ccn(-c2ccnc(C(F)(F)F)c2)nc1-c1ccnn1-c1cccc(Cl)c1` [Example 95, 3-[2-(3-Chloro-phenyl)-2H-pyrazol-3-yl]-1-(2-trifluoromethyl-pyridin-4-yl)-1H-pyridazin-4-one], the concentration for half-maximal inhibition (IC50) was 73 nM.
